Measured values as given in patent publication US20230364121A1 (priority 2020, published 2023).
Values joined by “and” are separate entries in the source; they are usually repeats but may differ in a detail not shown here. Equal values may be shown once.

Legend:
[1] = target: T1, SARS-CoV-2 ExoN (nsp14/nsp10) (Severe acute respiratory syndrome coronavirus 2, UniProt P0DTD1); type: biochemical
T1 construct: 50 nM nsp14/nsp10 (1:5) were added for time-course reactions

SARS-CoV-2 viral genome = type: cell-based

SMILES | resistance to ExoN mediated excision relative to an unmodified RNA 3′-end [1] [fold] | Mean number of mutations, transition A > G (SARS-CoV-2 viral genome) | Mean number of mutations, transition C > T (SARS-CoV-2 viral genome) | Mean number of mutations, transition G > A (SARS-CoV-2 viral genome) | Mean number of mutations, transition T > C (SARS-CoV-2 viral genome) | Number of Mutations, transition A > G (SARS-CoV-2 viral genome) | Number of Mutations, transition C > T (SARS-CoV-2 viral genome) | Number of Mutations, transition G > A (SARS-CoV-2 viral genome) | Number of Mutations, transition T > C (SARS-CoV-2 viral genome) | number of mutations compared to virus control Vc (SARS-CoV-2 viral genome)
C[C@@]1(F)[C@H](O)[C@@H](COP(=O)(O)OP(=O)(O)OP(=O)(O)O)O[C@H]1n1cnc2c(=O)[nH]c(N)nc21 [AT-9010, 2′-fluoro-2′-C-methylguanosine-5′-triphosphate] | ~4.8 |  |  |  |  |  |  |  |  | 
CNc1nc(N)nc2c1ncn2[C@@H]1O[C@H](COP(=O)(N[C@@H](C)C(=O)OC(C)C)Oc2ccccc2)[C@@H](O)[C@@]1(C)F (stereo partly shown) [Compound 1A] |  | 429 | 24.5 | 6 | 473 | 454 and 404 | 22 and 27 | 7 and 5 | 489 and 457 | did not show an increased number of mutations
CC(C)C[C@H](NC(=O)OCc1ccccc1)C(=O)N[C@@H](C[C@@H]1CCNC1=O)C(O)S(=O)(=O)O (stereo partly shown) [GC376] |  |  |  |  |  |  |  |  |  | slight increase of the number of mutations
CC(C)C[C@H](NC(=O)OCc1ccccc1)C(=O)N[C@@H](CC1CCNC1=O)C(O)S(=O)(=O)[O-].[Na+] (stereo partly shown) [GC 376] |  | 465.5 | 62 | 14.5 | 532.5 | 545 and 368 | 51 and 73 |  | 662 and 403 | 
CC(C)C(=O)OC[C@H]1O[C@@H](n2ccc(NO)nc2=O)[C@H](O)[C@@H]1O [Molnupiravir, molnupiravir] |  | 842 | 592 | 385 | 910.5 | 813 and 871 | 602 and 582 | 385 | 932 and 889 | significant increase in the number of mutations
C[C@@]1(F)[C@H](O)[C@@H](COP(=O)(O)OP(=O)(O)OP(=O)(O)O)O[C@H]1n1ccc(=O)[nH]c1=O [STP, 5′-triphosphate 2′-fluoro-2′-C-methyl uridine] | ~1.2 |  |  |  |  |  |  |  |  | 
